Assay results as given in publication PMC12207366, “Protonated Glutamate and Aspartate Side Chains Can Recognize Phosphodiester Groups via Strong and Short Hydrogen Bonds in Biomacromolecular Complexes” (Angewandte Chemie (International Ed. in English), 2025).

How the values were obtained:
[1] = target: T1, PilF159-302 Q218E (Thermus thermophilus, UniProt Q72H73, Q218E); assay: ITC c-di-GMP binding to Q218E mutant, pH series; details: 20 °C
T1 sequence (Q72H73 159-302 Q218E): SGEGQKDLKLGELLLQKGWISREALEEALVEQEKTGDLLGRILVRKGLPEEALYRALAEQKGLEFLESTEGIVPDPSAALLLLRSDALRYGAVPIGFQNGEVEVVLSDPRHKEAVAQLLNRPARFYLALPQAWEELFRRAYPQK
Description: To characterize c-di-GMP binding by PilF159-302, the Q190E and Q218E constructs via isothermal titration calorimetry (ITC) and X-ray crystallography unlabeled c-di-GMP was synthesized using a constitutively active mutant of a diguanylate cyclase from the thermophilic bacterium Thermogata maritima ^[4^4,4^5]. For NMR experiments ^13C,^15N labelled c-di-GMP was synthesized identically using ^13C,^15N labelled GTP as a substrate.
c-di-GMP binding capabilities of PilF159-302, its mutant constructs PilF159-302 Q190E and PilF159-302 Q218E at varying pH-values were investigated by isothermal titration calorimetry (ITC) experiments in triplicate. All measurements were conducted at 20 °C using a MicroCal ITC200 (Malvern Panalytical, UK). For PilF159-302 Q190E and PilF159-302 Q218E ITC-measurements were conducted in a pH range from pH 8.5 – 4.0 with the buffering agent adjusted to the respective pH-range. For the pH-range 8.5 – 7.5 a sample buffer of 50 mM Tris, 200 mM NaCl and 1 mM β-Me was used. For pH values 7.0 – 6.0 a sample buffer of 50 mM BisTris, 200 mM NaCl, 1 mM β-Me and for pH 5.5 – 4.0 a sample buffer of 50 mM NaAc, 200 mM NaCl, 1 mM β-Me was used. For reference PilF159-302 was titrated with c-di-GMP at pH 8.5 in 50 mM Tris pH 8.5, 200 mM NaCl, 1 mM β-Me and at pH 4.0 in 50 mM NaAc pH 4.0, 200 mM NaCl, 1 mM β-Me. In order to test whether the buffer reagents have an influence on the measured thermodynamic parameters, cross measurements were performed in the region of the pH transitions. To this end, additional measurements with BisTris at pH 7.5 and 5.5, with Tris at pH 7.0 and with NaAc at pH 6.0 were carried out as singlets. The buffer agents had no influence on measured KD-values and resulted only in small changes of the ΔH values. All protein samples were dialyzed two times against 500 ml of the respective sample buffer (1 L in total) at 4 °C for at least 16 hours per step using a dialysis chamber with a nominal 3.5 kDa molecular weight cutoff (ZelluTrans, ROTH). To prepare the ITC-measurements protein and c-di-GMP sample were adjusted to the respective concentration using the dialysis buffer. Protein and c-di-GMP concentration ranged from 20 to 50 µM (protein) and 200 to 500 µM (c-di-GMP) depending on the c-di-GMP binding capabilities at the different pH-values to optimize precision of the measurements. For pH 8.5 – 7.0 a protein concentration of 50 µM with 500 µM c-di-GMP was used. For pH 6.5 – 5.0 a protein concentration of 30 µM with 300 µM c-di-GMP and for pH 4.5 – 4.0 a protein concentration of 20 µM with 200 µM c-di-GMP was used. The following protocol was utilized for each measurement. To 270 µl protein a total of 40 µl c-di-GMP was titrated in 21 injections with a duration of 4 s in intervals of 180 s with a stirring speed of 750 rpm. The first injection of 0.2 µl c-di-GMP with a duration of 0.4 s was carried out after an initial delay of 120 s, which was followed by 20 injections of 2 µl each with a duration of 4 s. During the measurement, the feedback mode was set to high and the reference power to 11 µcal s^-1. All thermograms were processed using Origin 7.0 (OriginLab) using the one-site binding model.

[2] = target: T2, PilF159-302 WT (Thermus thermophilus, UniProt Q72H73); set-up: method as in PMID 39615687; details: GSPII-B (PilF159-302) four-helix bundle; cited from earlier work
T2 sequence (Q72H73 159-302): T1 sequence (Q72H73 159-302 Q218E)

[3] = tested on: GSPII-B domain Q190E Q218E double mutant; set-up: method as in PMID 39615687; details: in vitro, pH 7.5; cited from earlier work
[4] = tested on: PilF159-221; set-up: method as in PMID 39615687; details: cited from earlier work

**Q.** With `Nc1nc2c(ncn2C2OC3COP(=O)(O)OC4C(COP(=O)(O)OC3C2O)OC(n2cnc3c(=O)[nH]c(N)nc32)C4O)c(=O)[nH]1` (centres unmarked) [c-di-GMP] as the compound, how does the “-TΔS” value ([1]; Bis-Tris, pH 6.0) read?
**A.** -2.23 ± 0.80 kcal/mol

**Q.** And the Kd ([1]; Bis-Tris, pH 6.0)?
**A.** 64 ± 7 nM

**Q.** And the N ([1]; Bis-Tris, pH 6.0)?
**A.** 1.03 ± 0.23

**Q.** And the ΔG ([1]; Bis-Tris, pH 6.0)?
**A.** -9.64 ± 0.06 kcal/mol

**Q.** And the ΔH ([1]; Bis-Tris, pH 6.0)?
**A.** -7.42 ± 0.75 kcal/mol

**Q.** What about the “-TΔS” value ([1]; Bis-Tris, pH 6.5) of the same compound?
**A.** -1.48 ± 0.23 kcal/mol

**Q.** What about the Kd ([1]; Bis-Tris, pH 6.5) of the same compound?
**A.** 110 ± 3 nM

**Q.** And the N ([1]; Bis-Tris, pH 6.5)?
**A.** 1.00 ± 0.27

**Q.** What about the ΔG ([1]; Bis-Tris, pH 6.5) of the same compound?
**A.** -9.33 ± 0.02 kcal/mol

**Q.** And the ΔH ([1]; Bis-Tris, pH 6.5)?
**A.** -7.86 ± 0.22 kcal/mol

**Q.** And the “-TΔS” value ([1]; Bis-Tris, pH 7.0)?
**A.** -2.05 ± 0.07 kcal/mol

**Q.** What about the Kd ([1]; Bis-Tris, pH 7.0) of the same compound?
**A.** 249 ± 7 nM

**Q.** What about the N ([1]; Bis-Tris, pH 7.0) of the same compound?
**A.** 0.90 ± 0.16

**Q.** What about the ΔG ([1]; Bis-Tris, pH 7.0) of the same compound?
**A.** -8.85 ± 0.02 kcal/mol

**Q.** What about the ΔH ([1]; Bis-Tris, pH 7.0) of the same compound?
**A.** -6.80 ± 0.08 kcal/mol

**Q.** And the Kd ([1]; Na-Acetate, pH 4.0)?
**A.** 23 ± 10 nM

**Q.** What about the N ([1]; Na-Acetate, pH 4.0) of the same compound?
**A.** 0.84 ± 0.07

**Q.** And the “-TΔS” value ([1]; Na-Acetate, pH 4.5)?
**A.** -2.56 ± 0.49 kcal/mol

**Q.** And the Kd ([1]; Na-Acetate, pH 4.5)?
**A.** 61 ± 7 nM

**Q.** What about the N ([1]; Na-Acetate, pH 4.5) of the same compound?
**A.** 0.90 ± 0.04

**Q.** What about the ΔG ([1]; Na-Acetate, pH 4.5) of the same compound?
**A.** -9.68 ± 0.07 kcal/mol

**Q.** What about the ΔH ([1]; Na-Acetate, pH 4.5) of the same compound?
**A.** -7.12 ± 0.44 kcal/mol

**Q.** And the “-TΔS” value ([1]; Na-Acetate, pH 5.0)?
**A.** -1.47 ± 0.47 kcal/mol

**Q.** And the Kd ([1]; Na-Acetate, pH 5.0)?
**A.** 36 ± 8 nM

**Q.** And the N ([1]; Na-Acetate, pH 5.0)?
**A.** 1.31 ± 0.09

**Q.** What about the ΔG ([1]; Na-Acetate, pH 5.0) of the same compound?
**A.** -9.99 ± 0.13 kcal/mol

**Q.** What about the ΔH ([1]; Na-Acetate, pH 5.0) of the same compound?
**A.** -8.53 ± 0.44 kcal/mol

**Q.** And the “-TΔS” value ([1]; Na-Acetate, pH 5.5)?
**A.** -0.40 ± 1.00 kcal/mol

**Q.** What about the Kd ([1]; Na-Acetate, pH 5.5) of the same compound?
**A.** 28 ± 10 nM

**Q.** What about the N ([1]; Na-Acetate, pH 5.5) of the same compound?
**A.** 0.97 ± 0.09

**Q.** And the ΔG ([1]; Na-Acetate, pH 5.5)?
**A.** -10.17 ± 0.20 kcal/mol

**Q.** And the ΔH ([1]; Na-Acetate, pH 5.5)?
**A.** -9.78 ± 0.92 kcal/mol

**Q.** And the “-TΔS” value ([1]; Tris, pH 7.5)?
**A.** -3.22 ± 0.17 kcal/mol

**Q.** And the Kd ([1]; Tris, pH 7.5)?
**A.** 342 ± 26 nM

**Q.** What about the N ([1]; Tris, pH 7.5) of the same compound?
**A.** 0.92 ± 0.07

**Q.** And the ΔG ([1]; Tris, pH 7.5)?
**A.** -8.67 ± 0.04 kcal/mol

**Q.** What about the ΔH ([1]; Tris, pH 7.5) of the same compound?
**A.** -5.45 ± 0.13 kcal/mol

**Q.** What about the “-TΔS” value ([1]; Tris, pH 8.0) of the same compound?
**A.** 0.99 ± 0.27 kcal/mol

**Q.** What about the Kd ([1]; Tris, pH 8.0) of the same compound?
**A.** 432 ± 25 nM

**Q.** What about the N ([1]; Tris, pH 8.0) of the same compound?
**A.** 1.12 ± 0.05

**Q.** What about the ΔG ([1]; Tris, pH 8.0) of the same compound?
**A.** -8.53 ± 0.03 kcal/mol

**Q.** And the ΔH ([1]; Tris, pH 8.0)?
**A.** -9.52 ± 0.31 kcal/mol

**Q.** What about the “-TΔS” value ([1]; Tris, pH 8.5) of the same compound?
**A.** 2.15 ± 0.18 kcal/mol

**Q.** And the Kd ([1]; Tris, pH 8.5)?
**A.** 463 ± 13 nM

**Q.** And the N ([1]; Tris, pH 8.5)?
**A.** 0.73 ± 0.14

**Q.** What about the ΔG ([1]; Tris, pH 8.5) of the same compound?
**A.** -8.49 ± 0.02 kcal/mol

**Q.** What about the ΔH ([1]; Tris, pH 8.5) of the same compound?
**A.** -10.65 ± 0.16 kcal/mol

**Q.** What about the Kd [2] of the same compound?
**A.** ~6 nM

**Q.** What about the c-di-GMP binding [3] of the same compound?
**A.** did not bind

**Q.** And the “c-di-GMP binding affinity of subdomain relative to full-length domain” value [4]?
**A.** comparable
